In ChEMBL document CHEMBL3727350, “Agents and methods for treating ischemic and other diseases” (2014):
The source made the active and inactive calls. The rule behind the calls is not given here.

Key:
SW13 [1] = experiment: Inhibition of cell proliferation of human SW13 cells at 1.25 to 10 uM incubated for 48 hrs by BrdU incorporation assay; format: functional, cell-based
B16-F1 = experiment: Inhibition of cell proliferation of mouse B16-F1 cells at 1.25 to 10 uM incubated for 72 hrs by SRB assay; format: functional, cell-based
MDA-MB-231 [2] = experiment: Inhibition of cell proliferation of human MDA-MB-231 cells at 1.25 to 10 uM incubated for 72 hrs by SRB assay; format: functional, cell-based
H9c2 [3] = experiment: Toxicity against rat H9c2 cells at 5 uM; format: cell-based; details: h9c2, 5 µM
[4] = Inhibition of cell proliferation of mouse NIH/3T3 cells at 1.25 to 10 uM incubated for 72 hrs by propidium iodide staining assay; format: cell-based; details: nih3t3, 72 h
[5] = target: Transient receptor potential cation channel subfamily M member 7 (Mus musculus) (UniProt Q923J1); experiment: Inhibition of TRPM7 in mouse primary neuronal cells exposed to oxygen glucose deprivation condition for 1 to 3 hrs assessed as reduction in TRPM7-mediated anoxic cell death dosed after oxygen glucose deprivation condition by propidium iodide uptake assay; details: Primary neuron
B16-F10 = experiment: Inhibition of cell proliferation of mouse B16F10 cells at 1.25 to 10 uM incubated for 72 hrs by SRB assay; format: functional, cell-based
SW13 [6] = experiment: Inhibition of cell proliferation of human SW13 cells at 1.25 to 10 uM incubated for 72 hrs by SRB assay; format: functional, cell-based
[7] = target: Transient receptor potential cation channel subfamily M member 7 (Mus musculus) (UniProt Q923J1); experiment: Inhibition of TRPM7 in mouse mouse primary cortical neurons exposed to 2 hrs oxygen glucose deprivation condition assessed as reduction in TRPM7-mediated anoxic cell death measured after 20 hrs by propidium iodide uptake assay; format: cell-based; details: Cerebral cortex neuron
HeLa [8] = experiment: Inhibition of cell proliferation of human HeLa cells at 1.25 to 10 uM incubated for 48 hrs by BrdU incorporation assay; format: functional, cell-based
[9] = target: Transient receptor potential cation channel subfamily M member 7 (Mus musculus) (UniProt Q923J1); experiment: Inhibition of Tet-induced Flag-tagged mouse TRPM7 expressed in HEK293 cells assessed as reduction in channel currents at 0.3 to 30 uM by whole cell patch clamp assay; format: cell-based
H9c2 [10] = experiment: Toxicity against rat H9c2 cells at 10 uM; format: cell-based; details: h9c2, 10 µM
[11] = target: Transient receptor potential cation channel subfamily M member 7 (Rattus norvegicus) (UniProt Q925B3); experiment: Inhibition of TRPM7 in rat H9C2 cells assessed as reduction in channel currents at 0.3 to 30 uM by whole cell patch clamp assay; format: cell-based
[12] = target: Transient receptor potential cation channel subfamily M member 7 (Mus musculus) (UniProt Q923J1); experiment: Inhibition of TRPM7 in mouse primary neuronal cells exposed to oxygen glucose deprivation condition for 1 to 3 hrs assessed as reduction in TRPM7-mediated anoxic cell death dosed before oxygen glucose deprivation condition by propidium iodide uptake assay; details: Primary neuron
[13] = Inhibition of cell proliferation of human WERI cells at 10 uM incubated for 48 to 96 hrs; format: functional
[14] = target: Transient receptor potential cation channel subfamily M member 7 (Mus musculus) (UniProt Q923J1); experiment: Inhibition of Tet-induced Flag-tagged mouse TRPM7 expressed in HEK293 cells assessed as inhibition of channel-mediated cell death in presence of Mg2+ incubated for 24 to 48 hrs by propidium iodide uptake assay; format: cell-based; parameters: concentration or dose not given beside the values; details: concentration not given here
HeLa [15] = experiment: Inhibition of cell proliferation of human HeLa cells at 10 uM incubated for 48 to 96 hrs; format: functional
[16] = target: Transient receptor potential cation channel subfamily M member 7 (Rattus norvegicus) (UniProt Q925B3); experiment: Inhibition of TRPM7 in Sprague-Dawley rat retinal explants subjected to 1 hr oxygen-glucose deprivation assessed as reduction in retinal ischemia at 5 uM
[17] = target: Transient receptor potential cation channel subfamily M member 7 (Rattus norvegicus) (UniProt Q925B3); experiment: Inhibition of TRPM7 in rat H9C2 cells exposed to oxygen glucose deprivation condition for 1 to 6 hrs assessed as reduction in TRPM7-mediated anoxic cell death in presence of 1 uM nifedipine by propidium iodide uptake assay; format: cell-based
[18] = Inhibition of cell proliferation of human DMS53 cells at 10 uM incubated for 48 to 96 hrs; format: functional; details: DMS-53
U2OS = experiment: Inhibition of cell proliferation of human U2OS cells at 10 uM incubated for 48 to 96 hrs; format: functional
MCF7 = experiment: Inhibition of cell proliferation of human MCF7 cells at 10 uM incubated for 48 to 96 hrs; format: functional
[19] = target: Transient receptor potential cation channel subfamily M member 7 (Rattus norvegicus) (UniProt Q925B3); experiment: Inhibition of TRPM7 in rat retinal explants exposed to oxygen glucose deprivation condition for 1 hr assessed as protection against TRPM7-mediated cell death at by propidium iodide uptake assay
[20] = target: Transient receptor potential cation channel subfamily M member 7 (Rattus norvegicus) (UniProt Q925B3); experiment: Inhibition of TRPM7 in cultured rat retinal ganglion cells exposed to oxygen glucose deprivation condition for 3 hrs assessed as protection against TRPM7-mediated cell death at by propidium iodide uptake assay; parameters: scale not given: the % may be the effect or the level left
SW13 [21] = experiment: Inhibition of cell proliferation of human SW13 cells at 10 uM incubated for 48 to 96 hrs; format: functional
[22] = Inhibition of cell proliferation of mouse B16F10 cells at 10 uM incubated for 48 to 96 hrs; format: functional; details: B16-F10
[23] = Inhibition of cell proliferation of mouse B16-F1 cells at 10 uM incubated for 48 to 96 hrs; format: functional
Mus musculus [24] = species: Mus musculus; experiment: Inhibition of sodium channel in mouse cortical neurons assessed as effect on Na+ currents
Y79 = experiment: Inhibition of cell proliferation of human Y79 cells at 10 uM incubated for 48 to 96 hrs; format: functional
Mus musculus [25] = species: Mus musculus; experiment: Inhibition of potassium channel in mouse cortical neurons assessed as reduction in potassium currents
[26] = target: Transient receptor potential cation channel subfamily M member 7 (Rattus norvegicus) (UniProt Q925B3); experiment: Inhibition of TRPM7 in Sprague-Dawley rat retinal explants dissociated and subjected to 1 hr oxygen-glucose deprivation assessed as reduction in retinal cell death at 1 and 5 uM
MDA-MB-231 [27] = experiment: Inhibition of cell proliferation of human MDA-MB-231 cells at 10 uM incubated for 48 to 96 hrs; format: functional
Mus musculus [28] = species: Mus musculus; experiment: Inhibition of calcium channel in mouse cortical neurons assessed as effect on Ca2+ currents; format: functional
Mus musculus [29] = experiment: Toxicity in mouse up to 150 uM, iv; format: organism-based; details: in vivo
[30] = target: Transient receptor potential cation channel subfamily M member 7 (Rattus norvegicus) (UniProt Q925B3); experiment: Inhibition of TRPM7 in rat H9c2 cells assessed as protection against oxygen glucose deprivation-induced cell death at 0.05 to 5 uM applied during OGD; format: cell-based
[31] = target: Transient receptor potential cation channel subfamily M member 7 (Rattus norvegicus) (UniProt Q925B3); experiment: Inhibition of TRPM7 in rat H9c2 cells assessed as protection against oxygen glucose deprivation-induced cell death at 0.05 to 5 uM pre-treated for 24 hrs before OGD; format: cell-based
[32] = target: Transient receptor potential cation channel subfamily M member 7 (Mus musculus) (UniProt Q923J1); experiment: Inhibition of TRPM7 in mouse mouse primary cortical neurons exposed to 1 hrs oxygen glucose deprivation condition assessed as reduction in TRPM7-mediated anoxic cell death at 1.25 to 10 uM measured after 20 hrs by propidium iodide uptake assay; format: cell-based; details: Cerebral cortex neuron
[33] = target: Transient receptor potential cation channel subfamily M member 7 (Rattus norvegicus) (UniProt Q925B3); experiment: Inhibition of TRPM7 in rat H9c2 cells assessed as protection against oxygen glucose deprivation-induced cell death at 0.05 to 5 uM in presence of 1 uM nifedipine; format: cell-based
[34] = target: Transient receptor potential cation channel subfamily M member 7 (Rattus norvegicus) (UniProt Q925B3); experiment: Inhibition of TRPM7 in rat H9C2 cells exposed to 6 hrs oxygen glucose deprivation condition followed by 2 hrs recovery assessed as reduction in TRPM7-mediated anoxic cell death at 0.05 to 5 uM by propidium iodide uptake assay; format: cell-based
[35] = target: Transient receptor potential cation channel subfamily M member 7 (Mus musculus) (UniProt Q923J1); experiment: Inhibition of TRPM7 in mouse AML12 cells assessed as protection against oxygen glucose deprivation-induced cell death at 0.5 to 5 uM; format: cell-based
[36] = target: Transient receptor potential cation channel subfamily M member 7 (Rattus norvegicus) (UniProt Q925B3); experiment: Inhibition of TRPM7 in rat H9c2 cells assessed as protection against oxygen glucose deprivation-induced cell death at 0.05 to 5 uM; format: cell-based
[37] = target: Transient receptor potential cation channel subfamily M member 7 (Rattus norvegicus) (UniProt Q925B3); experiment: Inhibition of TRPM7 in rat H9c2 cells assessed as protection against oxygen glucose deprivation-induced cell death at 0.05 to 5 uM pre-treated for 24 hrs before OGD in presence of 1 uM nifedipine; format: cell-based

Transient receptor potential cation channel subfamily M member 7 (Mus musculus), sequence (Q923J1 whole entry): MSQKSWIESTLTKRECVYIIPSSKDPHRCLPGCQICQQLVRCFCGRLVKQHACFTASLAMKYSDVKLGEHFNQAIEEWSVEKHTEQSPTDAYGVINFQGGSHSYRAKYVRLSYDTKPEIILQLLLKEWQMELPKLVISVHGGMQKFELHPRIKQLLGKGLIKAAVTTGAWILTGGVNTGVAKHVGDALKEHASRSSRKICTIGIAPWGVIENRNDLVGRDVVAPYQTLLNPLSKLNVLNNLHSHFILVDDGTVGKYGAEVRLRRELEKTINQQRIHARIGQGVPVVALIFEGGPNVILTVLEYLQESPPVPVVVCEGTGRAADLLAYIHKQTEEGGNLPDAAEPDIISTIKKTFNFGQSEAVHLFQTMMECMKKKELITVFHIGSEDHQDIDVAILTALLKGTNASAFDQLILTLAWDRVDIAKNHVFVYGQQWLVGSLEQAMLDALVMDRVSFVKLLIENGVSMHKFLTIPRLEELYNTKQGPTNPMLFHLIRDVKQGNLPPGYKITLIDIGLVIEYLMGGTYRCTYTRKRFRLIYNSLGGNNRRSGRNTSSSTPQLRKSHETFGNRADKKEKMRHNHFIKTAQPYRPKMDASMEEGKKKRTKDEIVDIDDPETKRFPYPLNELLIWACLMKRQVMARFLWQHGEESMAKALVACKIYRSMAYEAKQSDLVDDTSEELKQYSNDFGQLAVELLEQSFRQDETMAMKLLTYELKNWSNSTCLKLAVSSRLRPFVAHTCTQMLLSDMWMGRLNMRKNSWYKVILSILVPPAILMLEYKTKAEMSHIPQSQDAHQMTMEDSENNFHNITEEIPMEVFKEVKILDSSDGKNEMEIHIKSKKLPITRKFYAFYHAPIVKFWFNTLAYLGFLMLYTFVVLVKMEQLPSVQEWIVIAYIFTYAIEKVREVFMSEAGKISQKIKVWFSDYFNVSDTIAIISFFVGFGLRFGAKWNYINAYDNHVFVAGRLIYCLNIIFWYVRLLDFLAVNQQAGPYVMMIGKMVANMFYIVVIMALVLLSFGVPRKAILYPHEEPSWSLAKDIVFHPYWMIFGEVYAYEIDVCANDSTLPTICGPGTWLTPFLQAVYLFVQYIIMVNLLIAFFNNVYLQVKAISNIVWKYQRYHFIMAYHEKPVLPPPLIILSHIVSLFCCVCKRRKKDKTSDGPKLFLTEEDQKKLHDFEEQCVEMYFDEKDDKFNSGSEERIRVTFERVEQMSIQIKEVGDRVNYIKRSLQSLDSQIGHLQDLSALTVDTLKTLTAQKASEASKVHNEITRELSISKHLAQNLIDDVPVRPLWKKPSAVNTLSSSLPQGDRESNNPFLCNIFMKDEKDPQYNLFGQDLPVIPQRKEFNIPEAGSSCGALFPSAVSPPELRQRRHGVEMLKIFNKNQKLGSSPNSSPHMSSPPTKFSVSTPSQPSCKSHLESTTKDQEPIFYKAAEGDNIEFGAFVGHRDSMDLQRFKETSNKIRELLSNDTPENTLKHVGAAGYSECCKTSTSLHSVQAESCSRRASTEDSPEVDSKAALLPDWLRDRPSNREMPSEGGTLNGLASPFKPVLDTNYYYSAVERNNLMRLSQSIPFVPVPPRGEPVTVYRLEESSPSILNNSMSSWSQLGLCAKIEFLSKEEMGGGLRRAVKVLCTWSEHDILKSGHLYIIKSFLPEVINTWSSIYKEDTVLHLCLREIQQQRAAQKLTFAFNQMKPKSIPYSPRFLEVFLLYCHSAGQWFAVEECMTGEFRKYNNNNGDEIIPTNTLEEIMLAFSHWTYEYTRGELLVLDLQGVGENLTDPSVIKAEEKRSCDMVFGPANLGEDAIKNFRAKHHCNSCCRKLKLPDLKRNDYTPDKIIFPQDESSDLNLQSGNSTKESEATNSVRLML
Transient receptor potential cation channel subfamily M member 7 (Rattus norvegicus), sequence (Q925B3 whole entry): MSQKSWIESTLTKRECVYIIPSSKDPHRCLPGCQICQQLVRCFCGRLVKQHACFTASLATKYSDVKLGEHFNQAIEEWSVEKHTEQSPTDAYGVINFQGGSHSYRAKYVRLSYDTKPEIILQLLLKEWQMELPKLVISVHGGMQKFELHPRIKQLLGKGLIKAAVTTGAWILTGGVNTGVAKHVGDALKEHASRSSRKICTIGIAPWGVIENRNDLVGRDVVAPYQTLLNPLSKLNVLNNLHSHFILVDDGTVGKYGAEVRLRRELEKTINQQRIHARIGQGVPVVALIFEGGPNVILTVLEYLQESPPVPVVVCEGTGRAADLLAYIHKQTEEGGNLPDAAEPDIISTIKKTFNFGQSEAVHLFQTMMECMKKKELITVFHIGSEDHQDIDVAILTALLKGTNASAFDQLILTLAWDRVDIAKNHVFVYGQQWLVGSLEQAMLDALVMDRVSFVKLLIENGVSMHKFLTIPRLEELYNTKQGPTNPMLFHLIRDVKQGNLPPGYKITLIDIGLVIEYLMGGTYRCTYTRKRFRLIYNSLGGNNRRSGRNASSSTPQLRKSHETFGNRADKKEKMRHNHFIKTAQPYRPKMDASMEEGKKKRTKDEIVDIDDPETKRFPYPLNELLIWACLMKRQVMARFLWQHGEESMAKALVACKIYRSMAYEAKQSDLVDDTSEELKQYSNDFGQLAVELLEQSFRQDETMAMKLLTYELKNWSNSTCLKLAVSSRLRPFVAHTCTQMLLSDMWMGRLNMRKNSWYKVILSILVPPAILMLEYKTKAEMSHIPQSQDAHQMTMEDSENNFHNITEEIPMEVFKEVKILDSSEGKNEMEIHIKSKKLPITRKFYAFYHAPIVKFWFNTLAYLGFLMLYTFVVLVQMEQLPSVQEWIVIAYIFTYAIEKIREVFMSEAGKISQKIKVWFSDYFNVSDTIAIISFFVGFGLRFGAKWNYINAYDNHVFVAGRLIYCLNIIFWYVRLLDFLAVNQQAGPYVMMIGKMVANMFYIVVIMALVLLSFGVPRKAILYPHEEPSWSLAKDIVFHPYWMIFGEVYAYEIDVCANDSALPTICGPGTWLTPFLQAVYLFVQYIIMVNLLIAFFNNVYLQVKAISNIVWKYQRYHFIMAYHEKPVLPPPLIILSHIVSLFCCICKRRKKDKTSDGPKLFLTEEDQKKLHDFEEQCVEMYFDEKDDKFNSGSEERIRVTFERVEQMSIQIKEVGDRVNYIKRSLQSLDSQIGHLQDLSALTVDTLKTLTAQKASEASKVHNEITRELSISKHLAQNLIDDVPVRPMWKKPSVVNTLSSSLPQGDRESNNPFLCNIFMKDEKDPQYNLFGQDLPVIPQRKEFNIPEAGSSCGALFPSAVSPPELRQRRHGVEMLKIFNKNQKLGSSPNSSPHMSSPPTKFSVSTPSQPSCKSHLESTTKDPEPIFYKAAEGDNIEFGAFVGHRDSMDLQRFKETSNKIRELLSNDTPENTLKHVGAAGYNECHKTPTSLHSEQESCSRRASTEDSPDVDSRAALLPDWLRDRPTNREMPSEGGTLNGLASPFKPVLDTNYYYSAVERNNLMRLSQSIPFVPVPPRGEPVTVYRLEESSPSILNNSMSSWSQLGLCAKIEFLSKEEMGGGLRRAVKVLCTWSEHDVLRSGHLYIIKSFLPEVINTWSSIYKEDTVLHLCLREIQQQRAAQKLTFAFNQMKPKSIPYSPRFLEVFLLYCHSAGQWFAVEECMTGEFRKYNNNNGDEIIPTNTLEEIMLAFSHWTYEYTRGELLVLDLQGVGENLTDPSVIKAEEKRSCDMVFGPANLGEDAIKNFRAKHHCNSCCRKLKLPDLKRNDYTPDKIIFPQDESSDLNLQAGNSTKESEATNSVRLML

Row | Compound | inhibition (B16-F1) | inhibition (MDA-MB-231 [2]) | Activity (H9c2 [3]) | Activity [4] | inhibition [5] | inhibition (B16-F10) | inhibition (SW13 [6]) | inhibition [7] | inhibition [9] | Activity (H9c2 [10]) | inhibition [11] | inhibition [12] | inhibition at 10 µM [13] [%] | inhibition [14] [%] | inhibition at 10 µM (HeLa [15]) [%] | inhibition [16] | inhibition [17] | inhibition at 10 µM (MCF7) [%] | inhibition [19] | Activity [20] [%] | further results
1 | Cc1ccc(-n2c(-c3ccc(Cl)c(C)c3)csc2=N)c(C)c1.Cl | Active | Active | Non-toxic | Non-toxic | Active | Active | Active | Active | Active | Toxic | Active | Active | > 20 | 80 | – | – | – | – | – | – | inhibition (SW13 [1]): Active; inhibition (HeLa [8]): Active
2 | O=C(Nc1ccc(F)cc1)C(Sc1ccc(Cl)cc1)c1ccccc1 (stereo not drawn) | Active | Active | Non-toxic | Non-toxic | Active | Active | Active | Active | Active | Toxic | Active | Active | – | 80 | > 20 | Active | Active | > 20 | Active | 66 | inhibition at 10 µM [18]: > 20%; inhibition at 10 µM (U2OS): > 20%; inhibition at 10 µM (SW13 [21]): > 20%; inhibition at 10 µM [22]: > 20%; inhibition at 10 µM [23]: > 20%; inhibition (Mus musculus [24]): inactive; inhibition at 10 µM (Y79): > 20%; inhibition (Mus musculus [25]): Active; inhibition [26]: Active; inhibition at 10 µM (MDA-MB-231 [27]): > 20%; inhibition (Mus musculus [28]): inactive
3 | Cc1ccc2c(c1)CCCN2C(=O)c1sc2ccccc2c1Cl | – | – | – | Non-toxic | Active | – | – | Active | Active | – | Active | Active | > 20 | 80 | > 20 | Active | Active | > 20 | Active | 66 | inhibition at 10 µM (SW13 [21]): > 20%; Activity (Mus musculus [29]): Non-toxic; inhibition at 10 µM [22]: > 20%; inhibition at 10 µM [23]: > 20%; inhibition (Mus musculus [24]): inactive; inhibition [30]: Active; inhibition at 10 µM (Y79): > 20%; inhibition (Mus musculus [25]): Active; inhibition [26]: Active; inhibition at 10 µM (MDA-MB-231 [27]): > 20%; inhibition [31]: Active; inhibition [32]: Active; inhibition [33]: Active; inhibition [34]: Active; inhibition (Mus musculus [28]): inactive; inhibition [35]: Active; inhibition [36]: Active; inhibition [37]: Active
